Results reported in patent US11442057B2, “Method for screening anticancer agent inhibiting binding of AIMP2-DX2 and HSP70” (MEDICINAL BIOCONVERGENCE RESEARCH CENTER, priority 2016, dated 2022).

Columns and labels:
[1] = tested on: AIMP2-DX2 protein; test: Western blot of AIMP2-DX2 protein expression level in H460 cells; assay type: cell-based, human; conditions: HSP70 or HSP90 inhibitor treatment
[2] = tested on: 293T cells overexpressing Strep-AIMP2-DX2; test: MTT assay of cell growth by AIMP2-DX2 in 293T cells overexpressing Strep-AIMP2-DX2; assay type: cell-based; conditions: inhibitors 12 hours or si-HSP70
Description: The HSP70 inhibitors Pifithrin-u (PES), and VER155008 (VER) and the HSP90 inhibitors Geldanamycin (Gel) and PUH71(Pu) were treated on 293T cells overexpressing Strep-AIMP2-DX2 and 293T cells not over-expressing, respectively for 12 hours, and MTT (Amresco) assay was performed. Each experiment was performed three times independently. Strep-AIMP2-DX2 was overexpressed in 293T cells, in which HSP70 expression was reduced using HSP70-specific si-RNA (si-HSP70), and MTT assay was performed. Each experiment was performed three times independently.

[3] = tested on: H460 cells xenograft; test: H460 xenograft in Balb/c nude mice; assay type: in vivo
Description: After the end of the experiment, the tumors were separated and weighed. The body weight and tumor size of the experimental animals were measured twice a week.

[4] = tested on: A549 (Lung cancer cells); test: MTT assay of cell activity in A549 lung cancer cells; assay type: cell-based; conditions: 2.5, 5, 10, 20, 40 uM
[5] = tested on: WI-26 (Normal lung cells); test: MTT assay of cell activity in WI-26 normal lung cells; conditions: 2.5, 5, 10, 20, 40 uM

CC(C)NCCCn1c(Sc2cc3c(cc2I)OCO3)nc2c(N)ncnc21 [PU, PUH71]
expression level of AIMP2-DX2 protein after inhibitor treatment [1]: not affected

NS(=O)(=O)C#Cc1ccccc1 [PES, Pifithrin-u]
increase in cell growth by AIMP2-DX2 [2]: No increase in cell growth by AIMP2-DX2 was observed
expression level of AIMP2-DX2 protein after inhibitor treatment [1]: decreased

N#Cc1ccc(COC[C@H]2O[C@@H](n3c(NCc4ccc(Cl)c(Cl)c4)nc4c(N)ncnc43)[C@H](O)[C@@H]2O)cc1 [VER, VER155008]
increase in cell growth by AIMP2-DX2 [2]: No increase in cell growth by AIMP2-DX2 was observed
expression level of AIMP2-DX2 protein after inhibitor treatment [1]: decreased

Cc1ccc(S(=O)(=O)N[C@@H](Cc2c[nH]c3ccccc23)C(=O)Nc2ccc(N3CCOCC3)cc2)cc1 [BC-DXI-495]
growth of cancer cells (tumor volume) ([3]; 50 mg/kg, 5 times a week, 10 times in total, compared with Taxol 15 mpk): inhibited to a degree similar to that of the control group Taxol
tumor weight ([3]; 50 mg/kg, tumors separated and weighed at end of experiment): tumor suppressive effect was also confirmed in the tumor weight
body weight of mice ([3]; during the course of the experiment): no effect on the body weight
effect on lung cancer cell A549 (cell activity, MTT) [4]: only lung cancer cells induce apoptosis
effect on normal lung cell WI-26 (cell activity, MTT) [5]: without any effect on normal cells
